# Source: EP4786487A1, “PEPTIDE” (Peptidream Inc, priority 2023, dated 2025)
# Starred links: 1 amine or outer side, 2 acyl side, 3 side chain; linkers in the order of their positions; H or OH if unused. Positions of bridges follow the written chain, without caps; N, C: chain ends. Non-standard residues stand in square brackets, D forms with d. Residues, ends and D or L forms follow the SMILES beside them. Phe(3-OCH2COOH) = N[C@@H](Cc1cccc(OCC(=O)O)c1)C(=O)O; Phe(4-COOH) = N[C@@H](Cc1ccc(C(=O)O)cc1)C(=O)O; Bip = N[C@@H](Cc1ccc(-c2ccccc2)cc1)C(=O)O; Gly(decyl) = CCCCCCCCCC[C@H](N)C(=O)O; Gly(N(CH2)3COOH) = O=C(O)CCCNCC(=O)O; X1 = CCCCCCC[C@H](N[*:1])C(=O)[*:2]; NMeF = CN[C@@H](Cc1ccccc1)C(=O)O; NMeA = CN[C@@H](C)C(=O)O; Sar = CNCC(=O)O
# Legend:
# Assay type in all cases: cell-based
# GDF-11 = target: T1, GDF-11 (Homo sapiens, UniProt O95390); assay: Reporter gene assay for myostatin signaling in HepG2 cell line, Evaluation Procedure (1), GDF-11 inhibition; details: Method A: GDF-11 10 ng/mL; read-out: IC50 (Luciferase) GDF-11 HepG2
# T1 construct: purchased R&D systems 1958-GD-G8/CF
# T1 sequence (O95390 299-407): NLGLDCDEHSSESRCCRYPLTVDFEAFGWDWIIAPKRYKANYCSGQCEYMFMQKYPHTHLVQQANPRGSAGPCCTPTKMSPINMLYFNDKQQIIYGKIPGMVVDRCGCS
# Outline: (§1)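 HepG2 cells transfected with pGL3(CAGA)12-luciferase reporter, serum-starved in 0.1% BSA medium, then stimulated with myostatin or GDF-11 plus 4-fold peptide dilutions (0.006–100 nmol/L for myostatin, 0.12–2000 nmol/L for GDF-11) for 20–24 h at 37 °C. Luminescence read with One-Glo; IC50 calculated.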
# Myostatin [1] = assay: Reporter gene assay for myostatin signaling in HepG2 cell line, Evaluation Procedure (1), myostatin inhibition; details: Method A; GDF-11 IC50 versus Myostatin IC50
# Outline: as §1
# Myostatin [2] = target: T2, Myostatin (Homo sapiens, UniProt O14793); assay: as above; details: Method A: Myostatin 10 ng/mL; read-out: IC50 (Luciferase) Myostatin HepG2
# T2 construct: active myostatin (also called mature myostatin) is a homodimer consisting of two C-terminal growth factor domains; purchased R&D systems 788-G8/CF
# T2 sequence (O14793 267-375): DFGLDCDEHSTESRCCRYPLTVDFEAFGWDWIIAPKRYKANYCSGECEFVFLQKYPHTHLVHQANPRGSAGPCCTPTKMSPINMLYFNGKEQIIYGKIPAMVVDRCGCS
# Outline: as §1
Structure (SMILES),IC50 (GDF-11) [µM],IC50 (Myostatin [2]) [µM],Selectivity (Myostatin [1])
CC[C@H](C)[C@@H]1NC(=O)[C@H](Cc2ccccc2)N(C)C(=O)[C@H](Cc2ccc(O)cc2)NC(=O)[C@H](Cc2ccc(-c3ccccc3)cc2)NC(=O)[C@H](CO)NC(=O)CN(CCCC(=O)O)C(=O)CSC[C@H](C(=O)O)NC(=O)[C@H](Cc2ccccc2)N(C)C(=O)[C@H](C)N(C)C(=O)[C@H](CC(C)C)NC(=O)[C@H](Cc2ccccc2)N(C)C(=O)[C@H](CCCNC(=N)N)NC(=O)[C@H](Cc2ccc(C(=O)O)cc2)NC(=O)[C@H](Cc2ccc(O)cc2)NC(=O)CN(C)C1=O [Myostatin_99_v186] ({CH2CO}-[Gly(N(CH2)3COOH)]S[Bip]Y[NMeF]I[Sar]Y[Phe(4-COOH)]R[NMeF]L[NMeA][NMeF][dC]-OH; thioether N-15),0.935,0.0432,22
CC[C@H](C)[C@@H]1NC(=O)[C@H](Cc2ccccc2)N(C)C(=O)[C@H](Cc2ccc(O)cc2)NC(=O)[C@H](Cc2c[nH]c3ccccc23)NC(=O)[C@H](CO)NC(=O)CN(CCCC(=O)O)C(=O)CSC[C@H](C(=O)O)NC(=O)[C@H](Cc2ccccc2)N(C)C(=O)[C@H](C)N(C)C(=O)[C@H](CC(C)C)NC(=O)[C@H](Cc2ccccc2)N(C)C(=O)[C@H](CCCNC(=N)N)NC(=O)[C@H](Cc2ccc(C(=O)O)cc2)NC(=O)[C@H](Cc2ccc(O)cc2)NC(=O)[C@H](C)N(C)C1=O [Myostatin_99_v188] ({CH2CO}-[Gly(N(CH2)3COOH)]SWY[NMeF]I[NMeA]Y[Phe(4-COOH)]R[NMeF]L[NMeA][NMeF][dC]-OH; thioether N-15),0.911,0.0554,16
CC[C@H](C)[C@@H]1NC(=O)[C@H](Cc2ccccc2)N(C)C(=O)[C@H](Cc2ccc(O)cc2)NC(=O)[C@H](Cc2c[nH]c3ccccc23)NC(=O)[C@H](C)NC(=O)[C@H](C)NC(=O)CSC[C@H](C(=O)O)NC(=O)[C@H](Cc2ccccc2)N(C)C(=O)[C@H](C)N(C)C(=O)[C@H](CC(C)C)NC(=O)[C@H](Cc2ccccc2)N(C)C(=O)[C@H](CCCNC(=N)N)NC(=O)[C@H](Cc2ccc(C(=O)O)cc2)NC(=O)[C@H](Cc2ccc(O)cc2)NC(=O)[C@H](C)N(C)C1=O [Myostatin_99_v191] ({CH2CO}-AAWY[NMeF]I[NMeA]Y[Phe(4-COOH)]R[NMeF]L[NMeA][NMeF][dC]-OH; thioether N-15),0.283,0.0081,35
CCCCCCC[C@@H]1NC(=O)[C@H](Cc2ccccc2)N(C)C(=O)[C@H](CCCNC(=N)N)NC(=O)[C@H](Cc2ccc(C(=O)O)cc2)NC(=O)[C@H](Cc2ccc(O)cc2)NC(=O)CN(C)C(=O)[C@H]([C@@H](C)CC)NC(=O)[C@H](Cc2ccccc2)N(C)C(=O)[C@H](Cc2ccc(O)cc2)NC(=O)[C@H](Cc2c[nH]c3ccccc23)NC(=O)[C@H](C)NC(=O)[C@H](C)NC(=O)CSC[C@H](C(=O)O)NC(=O)[C@H](Cc2ccccc2)N(C)C(=O)[C@H](C)N(C)C1=O [Myostatin_99_v193] ({CH2CO}-AAWY[NMeF]I[Sar]Y[Phe(4-COOH)]R[NMeF][X1][NMeA][NMeF][dC]-OH; thioether N-15),0.057,0.001,57
CCCCCCC[C@@H]1NC(=O)[C@H](Cc2ccccc2)N(C)C(=O)[C@H](CCCNC(=N)N)NC(=O)[C@H](Cc2ccc(C(=O)O)cc2)NC(=O)[C@H](Cc2cccc(OCC(=O)O)c2)NC(=O)[C@H](C)N(C)C(=O)[C@H]([C@@H](C)CC)NC(=O)[C@H](Cc2ccccc2)N(C)C(=O)[C@H](Cc2ccc(O)cc2)NC(=O)[C@H](Cc2c[nH]c3ccccc23)NC(=O)[C@H](CO)NC(=O)[C@H](C)NC(=O)CSC[C@H](C(=O)O)NC(=O)[C@H](Cc2ccccc2)N(C)C(=O)[C@H](C)N(C)C1=O [Myostatin_99_v197] ({CH2CO}-ASWY[NMeF]I[NMeA][Phe(3-OCH2COOH)][Phe(4-COOH)]R[NMeF][X1][NMeA][NMeF][dC]-OH; thioether N-15),0.438,0.0034,129
CCCCCCCCCC[C@@H]1NC(=O)[C@H](Cc2ccccc2)N(C)C(=O)[C@H](CCCNC(=N)N)NC(=O)[C@H](Cc2ccc(C(=O)O)cc2)NC(=O)[C@H](Cc2cccc(OCC(=O)O)c2)NC(=O)[C@H](C)N(C)C(=O)[C@H]([C@@H](C)CC)NC(=O)[C@H](Cc2ccccc2)N(C)C(=O)[C@H](Cc2ccc(O)cc2)NC(=O)[C@H](Cc2c[nH]c3ccccc23)NC(=O)[C@H](C)NC(=O)CN(CCCC(=O)O)C(=O)CSC[C@H](C(=O)O)NC(=O)[C@H](Cc2ccccc2)N(C)C(=O)[C@H](C)N(C)C1=O [Myostatin_99_v198] ({CH2CO}-[Gly(N(CH2)3COOH)]AWY[NMeF]I[NMeA][Phe(3-OCH2COOH)][Phe(4-COOH)]R[NMeF][Gly(decyl)][NMeA][NMeF][dC]-OH; thioether N-15),0.09,0.0007,123

# Further compounds by falling IC50 (GDF-11), results first:
IC50 (GDF-11) [µM],IC50 (Myostatin [2]) [µM],Structure (SMILES),Selectivity (Myostatin [1])
2.06,0.0121,CC[C@H](C)[C@@H]1NC(=O)[C@H](Cc2ccccc2)N(C)C(=O)[C@H](Cc2ccc(O)cc2)NC(=O)[C@H](Cc2c[nH]c3ccccc23)NC(=O)[C@H](C)NC(=O)[C@H](C)NC(=O)CSC[C@H](C(=O)O)NC(=O)[C@H](Cc2ccccc2)N(C)C(=O)[C@H](C)N(C)C(=O)[C@H](CC(C)C)NC(=O)[C@H](Cc2ccccc2)N(C)C(=O)[C@H](CCCNC(=N)N)NC(=O)[C@H](Cc2ccc(C(=O)O)cc2)NC(=O)[C@H](Cc2cccc(OCC(=O)O)c2)NC(=O)CN(C)C1=O [Myostatin_99_v192] ({CH2CO}-AAWY[NMeF]I[Sar][Phe(3-OCH2COOH)][Phe(4-COOH)]R[NMeF]L[NMeA][NMeF][dC]-OH; thioether N-15),170
1.83,0.0142,CC[C@H](C)[C@@H]1NC(=O)[C@H](Cc2ccccc2)N(C)C(=O)[C@H](Cc2ccc(O)cc2)NC(=O)[C@H](Cc2ccc(-c3ccccc3)cc2)NC(=O)[C@H](C)NC(=O)CN(CCCC(=O)O)C(=O)CSC[C@H](C(=O)O)NC(=O)[C@H](Cc2ccccc2)N(C)C(=O)[C@H](C)N(C)C(=O)[C@H](CC(C)C)NC(=O)[C@H](Cc2ccccc2)N(C)C(=O)[C@H](CCCNC(=N)N)NC(=O)[C@H](Cc2ccc(C(=O)O)cc2)NC(=O)[C@H](Cc2cccc(OCC(=O)O)c2)NC(=O)CN(C)C1=O [Myostatin_99_v184] ({CH2CO}-[Gly(N(CH2)3COOH)]A[Bip]Y[NMeF]I[Sar][Phe(3-OCH2COOH)][Phe(4-COOH)]R[NMeF]L[NMeA][NMeF][dC]-OH; thioether N-15),129
0.603,0.0034,CCCCCCC[C@@H]1NC(=O)[C@H](Cc2ccccc2)N(C)C(=O)[C@H](CCCNC(=N)N)NC(=O)[C@H](Cc2ccc(C(=O)O)cc2)NC(=O)[C@H](Cc2cccc(OCC(=O)O)c2)NC(=O)[C@H](C)N(C)C(=O)[C@H]([C@@H](C)CC)NC(=O)[C@H](Cc2ccccc2)N(C)C(=O)[C@H](Cc2ccc(O)cc2)NC(=O)[C@H](Cc2c[nH]c3ccccc23)NC(=O)[C@H](C)NC(=O)CN(CCCC(=O)O)C(=O)CSC[C@H](C(N)=O)NC(=O)[C@H](Cc2ccccc2)N(C)C(=O)[C@H](C)N(C)C1=O [Myostatin_99_v196] ({CH2CO}-[Gly(N(CH2)3COOH)]AWY[NMeF]I[NMeA][Phe(3-OCH2COOH)][Phe(4-COOH)]R[NMeF][X1][NMeA][NMeF][dC]-NH2; thioether N-15),177
0.255,0.0013,CCCCCCC[C@@H]1NC(=O)[C@H](Cc2ccccc2)N(C)C(=O)[C@H](CCCNC(=N)N)NC(=O)[C@H](Cc2ccc(C(=O)O)cc2)NC(=O)[C@H](Cc2cccc(OCC(=O)O)c2)NC(=O)[C@H](C)N(C)C(=O)[C@H]([C@@H](C)CC)NC(=O)[C@H](Cc2ccccc2)N(C)C(=O)[C@H](Cc2ccc(O)cc2)NC(=O)[C@H](Cc2c[nH]c3ccccc23)NC(=O)[C@H](C)NC(=O)[C@H](C)N(C)C(=O)CSC[C@H](C(=O)O)NC(=O)[C@H](Cc2ccccc2)N(C)C(=O)[C@H](C)N(C)C1=O [Myostatin_99_v195] ({CH2CO}-[NMeA]AWY[NMeF]I[NMeA][Phe(3-OCH2COOH)][Phe(4-COOH)]R[NMeF][X1][NMeA][NMeF][dC]-OH; thioether N-15),196
0.234,0.0069,CC[C@H](C)[C@@H]1NC(=O)[C@H](Cc2ccccc2)N(C)C(=O)[C@H](Cc2ccc(O)cc2)NC(=O)[C@H](Cc2ccc(-c3ccccc3)cc2)NC(=O)[C@H](C)NC(=O)[C@H](C)NC(=O)CSC[C@H](C(=O)O)NC(=O)[C@H](Cc2ccccc2)N(C)C(=O)[C@H](C)N(C)C(=O)[C@H](CC(C)C)NC(=O)[C@H](Cc2ccccc2)N(C)C(=O)[C@H](CCCNC(=N)N)NC(=O)[C@H](Cc2ccc(C(=O)O)cc2)NC(=O)[C@H](Cc2ccc(O)cc2)NC(=O)CN(C)C1=O [Myostatin_99_v189] ({CH2CO}-AA[Bip]Y[NMeF]I[Sar]Y[Phe(4-COOH)]R[NMeF]L[NMeA][NMeF][dC]-OH; thioether N-15),34
0.139,0.0012,CCCCCCC[C@@H]1NC(=O)[C@H](Cc2ccccc2)N(C)C(=O)[C@H](CCCNC(=N)N)NC(=O)[C@H](Cc2ccc(C(=O)O)cc2)NC(=O)[C@H](Cc2cccc(OCC(=O)O)c2)NC(=O)[C@H](C)N(C)C(=O)[C@H]([C@@H](C)CC)NC(=O)[C@H](Cc2ccccc2)N(C)C(=O)[C@H](Cc2ccc(O)cc2)NC(=O)[C@H](Cc2c[nH]c3ccccc23)NC(=O)[C@H](C)NC(=O)[C@H](C)NC(=O)CSC[C@H](C(=O)O)NC(=O)[C@H](Cc2ccccc2)N(C)C(=O)[C@H](C)N(C)C1=O [Myostatin_99_v194] ({CH2CO}-AAWY[NMeF]I[NMeA][Phe(3-OCH2COOH)][Phe(4-COOH)]R[NMeF][X1][NMeA][NMeF][dC]-OH; thioether N-15),116
